The test system of this experiment is a variety of test species. The experiment in a line: Post-emergence herbicidal activity. More on the design: key to ABUTH (Abutilon theophrasti) damage score / AMARE (Amaranthus retroflexus) damage score / ALOMY (Alopecurus myosuroides) damage score / ECHCG (Echinochloa crus-galli) damage score / ZEAMX (Zea mays) damage score / SOLNI (Solanum nigrum) damage score: 0 = no damage to plant, 5 = total damage to plant. In kind it is in vivo. The note with it: rate 1000 g/ha, evaluated after 13 days. The protocol: Seeds of a variety of test species were sown in standard soil in pots. After 8 days cultivation (post-emergence) under controlled conditions in a glasshouse (at 24/16° C., day/night; 14 hours light; 65% humidity), the plants were sprayed with an aqueous spray solution derived from the formulation of the technical active ingredient in acetone/water (50:50) solution containing 0.5% Tween 20 (polyoxyethelyene sorbitan monolaurate, CAS RN 9005-64-5). The test plants were then grown in a glasshouse under controlled conditions (at 24/16° C., day/night; 14 hours light; 65% humidity) and watered twice daily. After 13 days, the test was evaluated (5=total damage to plant; 0=no damage to plant, NC=not captured).
With `CCC1=C(Br)C(O)N(c2cc(C(C)(C)C#N)ncn2)C1=O` (racemic) [CB2], the “ABUTH (Abutilon theophrasti) damage score” value (from here on “ABUTH”) is 3, the “ALOMY (Alopecurus myosuroides) damage score” value (shortened to “ALOMY”) is given as 1, the “AMARE (Amaranthus retroflexus) damage score” value (from here on “AMARE”) is reported as 3 and the “ECHCG (Echinochloa crus-galli) damage score” value (“ECHCG” for short) is 1. Besides, the “SETFA (Setaria faberi) damage score” value is on record as 0 and the “ZEAMX (Zea mays) damage score” value was 0.
For `COC1=C(C)C(=O)N(c2cc(Cl)ncn2)C1O` (racemic) [CD2], the “ABUTH” value came to 2, the “ALOMY” value turned out to be 3, the “AMARE” value turned out to be 5 and the “ECHCG” value is on record as 3. In addition, the “SETFA (Setaria faberi) damage score” value is given as 4 and the “ZEAMX (Zea mays) damage score” value is 1.
Take `COC1=C(C)C(=O)N(c2cc(C(C)(C)C)ncn2)C1O` (racemic) [CD3]: the “ABUTH” value was found to be 5, the “ALOMY” value turned out to be 5, the “AMARE” value amounted to 5 and the “ECHCG” value is on record as 5. For the same compound, the “SETFA (Setaria faberi) damage score” value is 5 and the “ZEAMX (Zea mays) damage score” value was 3.
On to `COC1=C(C)C(=O)N(c2cc(C(F)(F)F)ncn2)C1O` (racemic) [CD4], for which the “ABUTH” value is given as 5, the “ALOMY” value worked out at 5, the “AMARE” value is reported as 3 and the “ECHCG” value turned out to be 5. In addition, the “SETFA (Setaria faberi) damage score” value was determined as 5 and the “ZEAMX (Zea mays) damage score” value amounted to 1.
Consider `COC1=C(C)C(=O)N(c2cc(Br)ncn2)C1O` (racemic) [CD5], for which the “ABUTH” value is 3, the “ALOMY” value was 1, the “AMARE” value is listed as 4 and the “ECHCG” value stood at 1. In addition, the “SETFA (Setaria faberi) damage score” value turned out to be 2 and the “ZEAMX (Zea mays) damage score” value stood at 0.
In the case of `CCN(C)c1cc(N2C(=O)C(C)=C(OC)C2O)ncn1` (racemic) [CD6], the “ABUTH” value worked out at 3, the “ALOMY” value is on record as 2, the “AMARE” value is given as 3 and the “ECHCG” value is given as 0. Further, the “SETFA (Setaria faberi) damage score” value was determined as 2 and the “ZEAMX (Zea mays) damage score” value amounted to 0.
With `COC1=C(C)C(=O)N(c2cc(N(C)C)ncn2)C1O` (racemic) [CD7], the “ABUTH” value amounted to 2, the “ALOMY” value was 0, the “AMARE” value was 2 and the “ECHCG” value turned out to be 0. In addition, the “SETFA (Setaria faberi) damage score” value is listed as 0 and the “ZEAMX (Zea mays) damage score” value amounted to 0.
Regarding `COC1=C(C)C(=O)N(c2cc(C(C)(C)C#N)ncn2)C1O` (racemic) [CD8], the “ABUTH” value is reported as 5, the “ALOMY” value stood at 5, the “AMARE” value came to 5 and the “ECHCG” value is on record as 5. Moreover, the “SETFA (Setaria faberi) damage score” value is on record as 5 and the “ZEAMX (Zea mays) damage score” value is listed as 3.
For `COC1=C(Br)C(=O)N(c2cc(C(C)(C)C)ncn2)C1O` (racemic) [CE1], the “ABUTH” value is listed as 4, the “ALOMY” value was 2, the “AMARE” value came out at 5 and the “ECHCG” value is reported as 3. Also, the “SETFA (Setaria faberi) damage score” value is 4 and the “ZEAMX (Zea mays) damage score” value worked out at 1.
Regarding `COC1=C(Cl)C(=O)N(c2cc(C(C)(C)C)ncn2)C1O` (racemic) [CF1], the “ABUTH” value came out at 4, the “ALOMY” value was found to be 1, the “AMARE” value is given as 2 and the “ECHCG” value is reported as 4. For the same compound, the “SETFA (Setaria faberi) damage score” value worked out at 4 and the “ZEAMX (Zea mays) damage score” value is given as 1.
Turning to `CC1=C(Cl)C(O)N(c2nccc(C(C)(C)C)n2)C1=O` (racemic) [DA1], the “ABUTH” value was found to be 4, the “ALOMY” value was 4, the “AMARE” value was 3 and the “ECHCG” value came to 4. For the same compound, the “SETFA (Setaria faberi) damage score” value is 5 and the “ZEAMX (Zea mays) damage score” value came out at 0.
In the case of `COC1=C(C)C(=O)N(c2nccc(C(C)(C)C)n2)C1O` (racemic) [DD1], the “ABUTH” value is recorded as 4, the “ALOMY” value is on record as 4, the “AMARE” value was 4 and the “ECHCG” value amounted to 5. Further, the “SETFA (Setaria faberi) damage score” value came out at 4 and the “ZEAMX (Zea mays) damage score” value came to 1.
For the compound `COC1=C(C)C(=O)N(c2nccc(N(C)C)n2)C1O` (racemic) [DD2], the “ABUTH” value is 0, the “ALOMY” value is 0, the “AMARE” value is 1 and the “ECHCG” value is reported as 1. The “SETFA (Setaria faberi) damage score” value amounted to 0 and the “ZEAMX (Zea mays) damage score” value worked out at 1.
`COC1=C(C)C(=O)N(c2ncc(Cl)c(N(C)C)n2)C1O` (racemic) [DD3]: the “ABUTH” value came to 3, the “ALOMY” value is given as 2, the “AMARE” value is listed as 4 and the “ECHCG” value turned out to be 2. The “SETFA (Setaria faberi) damage score” value was 6 and the “ZEAMX (Zea mays) damage score” value is 1.
In the case of `CCO/C=C\c1cnc(N2C(=O)C(C)=C(Cl)C2O)cc1C(F)(F)F` (stereo not drawn) [AA1], the “ABUTH” value stood at 5, the “ALOMY” value was 3, the “AMARE” value amounted to 5 and the “ECHCG” value is listed as 5. The “SETFA (Setaria faberi) damage score” value worked out at 5 and the “ZEAMX (Zea mays) damage score” value is recorded as 1.
As for `CC(C)=C(C)c1cnc(N2C(=O)C(C)=C(Cl)C2O)cc1C(F)(F)F` (stereo not drawn) [AA2], the “ABUTH” value turned out to be 4, the “ALOMY” value was 2, the “AMARE” value amounted to 5 and the “ECHCG” value is recorded as 2. The “SETFA (Setaria faberi) damage score” value came out at 4 and the “ZEAMX (Zea mays) damage score” value came out at 2.
As for `CC1=C(Cl)C(O)N(c2nccc(C(F)(F)F)c2F)C1=O` (stereo not drawn) [AA4], the “ABUTH” value is 1, the “ALOMY” value is 1, the “AMARE” value is listed as 1 and the “ECHCG” value is 0. Moreover, the “SETFA (Setaria faberi) damage score” value came to 1 and the “ZEAMX (Zea mays) damage score” value turned out to be 2.
Consider `CC1=C(Cl)C(O)N(c2cc(C(C)C)c(C(=O)OC(C)C)cn2)C1=O` (stereo not drawn) [AA9], for which the “ABUTH” value is 4, the “ALOMY” value is reported as 2, the “AMARE” value was 4 and the “ECHCG” value was 1. Moreover, the “SETFA (Setaria faberi) damage score” value is listed as 1 and the “ZEAMX (Zea mays) damage score” value was 1.

For the origin of these results see US9611248B2, “Chemical compounds” (Syngenta Participations AG, priority 2013, dated 2017).
